Test [1] concerns the target T1, κ-opioid receptor (Homo sapiens (Human), UniProt P41145). The test can be described thus: κ-opioid receptor [35S]GTPγS functional assay, HEK-293 or CHO cells. In kind it is biochemical. The procedure:
κ-Opioid Receptor Functional Assay Procedures: Functional [^35S]GTPγS binding assays were conducted as follows. κ opioid receptor membrane solution was prepared by sequentially adding final concentrations of 0.026 μg/μl κ membrane protein (in-house), 10 μg/mL saponin, 3 μM GDP and 0.20 nM [^35S]GTPγS to binding buffer (100 mM NaCl, 10 mM MgCl2, 20 mM HEPES, pH 7.4) on ice. The prepared membrane solution (190 μl/well) was transferred to 96-shallow well polypropylene plates containing 10 μl of 20× concentrated stock solutions of agonist prepared in DMSO. Plates were incubated for 30 min at a temperature of about 25° C. with shaking. Reactions were terminated by rapid filtration onto 96-well Unifilter GF/B filter plates (Perkin Elmer, Shelton, Conn.) using a 96-well tissue harvester (Packard) and followed by three filtration washes with 200 μl ice-cold binding buffer (10 mM NaH2PO4, 10 mM Na2HPO4, pH 7.4). Filter plates were subsequently dried at 50° C. for 2-3 hours. Fifty μl/well scintillation cocktail (Perkin Elmer, Shelton, Conn.) was added and plates were counted in a Packard Top-Count for 1 min/well.
κ-Opioid Receptor Functional Data: κ GTP EC50 is the concentration of a compound providing 50% of the maximal response for the compound at a κ receptor.
κ GTP Emax (%) is the maximal effect elicited by a compound relative to the effect elicited by U69,593.
(§1) In TABLE 2, activity response of certain Compounds of the Invention to the μ-, δ- and κ-opioid receptors was determined as described above for functional assays using HEK-293 or CHO cells.

For test [2], the target named is T1, κ-opioid receptor. The test can be described thus: κ-opioid receptor radioligand dose-displacement binding assay ([3H]-U69,593). As to conditions: binding affinity, [3H]-U69,593 displacement. The procedure:
κ-Opioid Receptor Binding Assay Procedures: Membranes from HEK-293 cells, CHO or U-2 OS cells expressing the recombinant human kappa opioid receptor (κ) were prepared by lysing cells in ice cold hypotonic buffer (2.5 mM MgCl2, 50 mM HEPES, pH 7.4) (10 mL/10 cm dish) followed by homogenization with a tissue grinder/Teflon pestle. Membranes were collected by centrifugation at 30,000×g for 15 min at 4° C. and pellets were resuspended in hypotonic buffer to a final concentration of 1-3 mg/mL. Protein concentrations were determined using the BioRad protein assay reagent with bovine serum albumen as standard, Aliquots of κ receptor membranes were stored at […].
Radioligand dose displacement assays used 0.4 nM [^3H]-U69,593 (GE Healthcare, Piscataway, N.J.; 40 Ci/mmole) with 15 μg membrane protein (recombinant κ opioid receptor expressed in HEK 293 cells; in-house prep) in a final volume of 200 μl binding buffer (5% DMSO, 50 mM Trizma base, pH 7.4). Non-specific binding was determined in the presence of 10 μM unlabeled naloxone or U69,593. All reactions were performed in 96-well polypropylene plates for 1 hour at a temperature of about 25° C. Binding reactions were terminated by rapid filtration onto 96-well Unifilter GF/C filter plates (Perkin Elmer, Shelton, Conn.) presoaked in 0.5% polyethylenimine (Sigma). Harvesting was performed using a 96-well tissue harvester (Perkin Elmer, Shelton, Conn.) followed by five filtration washes with 200 μl ice-cold binding buffer. Filter plates were subsequently dried at 50° C. for 1-2 hours. Fifty μl/well scintillation cocktail (Perkin Elmer, Shelton, Conn.) was added and plates were counted in a Packard Top-Count for 1 min/well.

For another test, the target named is μ-opioid receptor (Homo sapiens (Human), UniProt P35372). The test can be described thus: μ-opioid receptor [35S]GTPγS functional assay, HEK-293 or CHO cells. The test is classed as biochemical. The protocol:
μ-Opioid Receptor Functional Assay Procedures: [^35S]GTPγS functional assays were conducted using freshly thawed μ-receptor membranes prepared in-house from a cell line expressing recombinant μ opioid receptor in a HEK-293, CHO or U-2 OS cell background, or purchased from a commercial source (Perkin Elmer, Shelton, Conn.; or DiscovRx, Fremont, Calif.). Assay reactions were prepared by sequentially adding the following reagents to binding buffer (100 mM NaCl, 10 mM MgCl2, 20 mM HEPES, pH 7.4) on ice (final concentrations indicated): membrane protein (0.026 mg/mL), saponin ([…]), GDP ([…]) and [^35S]GTPγS (0.20 nM; Perkin Elmer, Shelton, Conn.). The prepared membrane solution (190 μl/well) was transferred to 96-shallow well polypropylene plates containing 10 μl of 20× concentrated stock solutions of the agonist [D-Ala^2, N-methyl-Phe^4 Gly-ol^5]-enkephalin (DAMGO) prepared in dimethyl sulfoxide (DMSO). Plates were incubated for 30 min at about 25° C. with shaking. Reactions were terminated by rapid filtration onto 96-well Unifilter GF/B filter plates (Perkin Elmer, Shelton, Conn.) using a 96-well tissue harvester (Perkin Elmer, Shelton, Conn.) followed by three filtration washes with 200 μl of ice-cold wash buffer (10 mM NaH2PO4, 10 mM Na2HPO4, pH 7.4). Filter plates were subsequently dried at 50° C. for 2-3 hours. BetaScint scintillation cocktail (Perkin Elmer, Shelton, Conn.) was added (50 μl/well) and plates were counted using a Packard Top-Count for 1 min/well. Data were analyzed using the sigmoidal dose-response curve fitting functions in GraphPad PRISM v. 3.0, or an in-house function for non-linear, sigmoidal dose-response curve-fitting.
μ-Opioid Receptor Functional Data: μ GTP EC50 is the concentration of a compound providing 50% of the maximal response for the compound at a μ-opioid receptor.
μ GTP Emax (%) is the maximal effect elicited by a compound relative to the effect elicited by DAMGO, a standard μ agonist. Generally, the μ GTP Emax (%) value measures the efficacy of a compound to treat or prevent pain or other Conditions.
as §1
Background: GTPγS resists hydrolysis and so accumulates on activated G proteins.

The mark [3] stands for this setting: relative to DAMGO, HEK-293 or CHO cells.
[4] abbreviates: relative to U69,593, HEK-293 or CHO cells.

The structures appear in SMILES notation. Read-outs that look alike come from different tables or passages of the source.

Broadly, the EC50 is the concentration that produces a half-maximal response. As a reminder, the Ki is the dissociation constant of the complex between target and ligand, obtained from inhibition or displacement. The molecule `CC(C)C[C@H](NC(=O)c1cc2c([nH]c1=O)C[C@]13CCN(CC4CC4)[C@H](Cc4ccc(O)cc41)[C@]3(O)C2)C(N)=O` [Compound 18, (6R,6aS,12aR)—N—((S)-1-amino-4-methyl-1-oxopentan-2-yl)-15-(cyclopropylmethyl)-2,6a-dihydroxy-10-oxo-6,6a,7,10,11,12-hexahydro-5H-6,12a-(epiminoethano)naphtho[2,1-g]quinoline-9-carboxamide] came in with an EC50 at κ-opioid receptor [1] of more than 20 µM. The molecule also yielded an inhibitory constant (Ki) on κ-opioid receptor [2] of 1.09 ± 0.05 nM.
Turning to `NC(=O)C[C@H](NC(=O)c1cc2c([nH]c1=O)C[C@]13CCN(CC4CC4)[C@H](Cc4ccc(O)cc41)[C@]3(O)C2)C(N)=O` [Compound 20, (S)-2-((6R,6aS,12aR)-15-(cyclopropylmethyl)-2,6a-dihydroxy-10-oxo-6,6a,7,10,11,12-hexahydro-5H-6,12a-(epiminoethano)naphtho[2,1-g]quinoline-9-carboxamido)succinamide], the concentration for a half-maximal effect (EC50) at κ-opioid receptor [1] and on μ-opioid receptor was more than 20 µM each time. Further, the affinity on κ-opioid receptor [2] corresponds to a Ki of 2.59 ± 0.99 nM.
In general, Emax refers to the maximal effect, on the per cent scale that the assay sets. With `NC(=O)[C@H](Cc1ccccc1)NC(=O)c1cc2c([nH]c1=O)C[C@]13CCN(CC4CC4)[C@H](Cc4ccc(O)cc41)[C@]3(O)C2` [Compound 17, (6R,6aS,12aR)—N—((S)-1-amino-1-oxo-3-phenylpropan-2-yl)-15-(cyclopropylmethyl)-2,6a-dihydroxy-10-oxo-6,6a,7,10,11,12-hexahydro-5H-6,12a-(epiminoethano)naphtho[2,1-g]quinoline-9-carboxamide], the EC50 at κ-opioid receptor [1] and on μ-opioid receptor was more than 20 µM in each case. The molecule further came in with a Ki on κ-opioid receptor [2] of 0.85 ± 0.15 nM. Further, at μ-opioid receptor (setting [3]), the Emax was -0.33 ± 0.67%.
Take `COc1ccc2c(c1)[C@]13CCN(CC4CC4)[C@H](C2)[C@@H]1Cc1cc(C(=O)O)c(=O)[nH]c1C3` [Compound 10, (6R,6aR,12aS)-15-(cyclopropylmethyl)-2-methoxy-10-oxo-6,6a,7,10,11,12-hexahydro-5H-6,12a-(epiminoethano)naphtho[2,1-g]quinoline-9-carboxylic acid]: the EC50 at κ-opioid receptor [1] (GTPγS, HEK-293 or CHO cells, read-out: κ EC50) came to 3.49 ± 0.636 µM; on μ-opioid receptor (GTPγS, HEK-293 or CHO cells, read-out: μ EC50), 0.225 ± 0.0896 µM. Besides, the “κ Emax (%)” value on κ-opioid receptor [1] (setting [4]) is on record as 37.75 ± 1.70%. On κ-opioid receptor [2], this molecule yielded an inhibition constant (Ki) of 183 ± 23.3 nM. Also, the “μ Emax (%)” value on μ-opioid receptor (setting [3]) is listed as 25.67 ± 0.88%.
`COc1ccc2c(c1)[C@]13CCN(CC4CC4)[C@H](C2)[C@]1(O)Cc1cc(C(N)=O)c(=O)[nH]c1C3` [Compound 4, (6R,6aS,12aR)-15-(cyclopropylmethyl)-6a-hydroxy-2-methoxy-10-oxo-6,6a,7,10,11,12-hexahydro-5H-6,12a-(epiminoethano)naphtho[2,1-g]quinoline-9-carboxamide]: the EC50 at κ-opioid receptor [1] was 5.38 ± 0.489 µM; at μ-opioid receptor it was more than 20 µM. The Emax on κ-opioid receptor [1] (setting [4]) is 39.7 ± 5.78%. Also, the Ki at κ-opioid receptor [2] was 292 ± 17 nM.
Take `NC(=O)[C@@H]1CCCN1C(=O)c1cc2c([nH]c1=O)C[C@]13CCN(CC4CC4)[C@H](Cc4ccc(O)cc41)[C@]3(O)C2` [Compound 19, (S)-1-((6R,6aS,12aR)-15-(cyclopropylmethyl)-2,6a-dihydroxy-10-oxo-6,6a,7,10,11,12-hexahydro-5H-6,12a-(epiminoethano)naphtho[2,1-g]quinoline-9-carbonyl)pyrrolidine-2-carboxamide]: the EC50 at κ-opioid receptor [1] and at μ-opioid receptor was more than 20 µM in each case. This molecule had a Ki at κ-opioid receptor [2] of 0.97 ± 0.23 nM.
On to `C[C@H](NC(=O)c1cc2c([nH]c1=O)C[C@]13CCN(CC4CC4)[C@H](Cc4ccc(O)cc41)[C@]3(O)C2)C(N)=O` [Compound 16], for which the concentration giving a half-maximal response (EC50) at κ-opioid receptor [1] is more than 20 µM; on μ-opioid receptor it was 0.00644 ± 0.00041 µM. Moreover, the affinity at κ-opioid receptor [2] corresponds to a Ki of 1.05 ± 0.22 nM. On μ-opioid receptor (setting [3]), the Emax was determined as 14.7 ± 3.28%.
On to `NC(=O)CNC(=O)c1cc2c([nH]c1=O)C[C@]13CCN(CC4CC4)[C@H](Cc4ccc(O)cc41)[C@]3(O)C2` [Compound 14, (6R,6aS,12aR)—N-(2-amino-2-oxoethyl)-15-(cyclopropylmethyl)-2,6a-dihydroxy-10-oxo-6,6a,7,10,11,12-hexahydro-5H-6,12a-(epiminoethano)naphtho[2,1-g]quinoline-9-carboxamide], for which the half-maximal effective concentration (EC50) on κ-opioid receptor [1] and on μ-opioid receptor was more than 20 µM each time. For the same molecule, the Ki on κ-opioid receptor [2] amounted to 1.53 ± 0.26 nM.
For `COc1ccc2c(c1)[C@]13CCN(CC4CC4)[C@H](C2)[C@]1(O)Cc1cc(C(=O)NCC(N)=O)c(=O)[nH]c1C3` [Compound 13, (6R,6aS,12aR)—N-(2-amino-2-oxoethyl)-15-(cyclopropylmethyl)-6a-hydroxy-2-methoxy-10-oxo-6,6a,7,10,11,12-hexahydro-5H-6,12a-(epiminoethano)naphtho[2,1-g]quinoline-9-carboxamide], on κ-opioid receptor [2], the Ki was determined as 467 ± 173 nM.
As for `COC(=O)c1cc2c([nH]c1=O)C[C@]13CCN(CC4CC4)[C@H](Cc4ccc(OC)cc41)[C@]3(O)C2` [Compound 2, (6R,6a,S,12aR)-methyl 15-(cyclopropylmethyl)-6a-hydroxy-2-dimethoxy-10-oxo-6,6a,7,10,11,12-hexahydro-5H-6,12a-(epiminoethano)naphtho[2,1-g]quinoline-9-carboxylate], the EC50 on κ-opioid receptor [1] is 0.594 ± 0.087 µM; at μ-opioid receptor, more than 20 µM. For the same molecule, the Emax on κ-opioid receptor [1] (setting [4]) is 37.5 ± 2.25%. On κ-opioid receptor [2], this molecule came in with an inhibition constant Ki of 37.6 ± 4.75 nM.
As for `COc1ccc2c(c1)[C@]13CCN(CC4CC4)[C@H](C2)[C@@H]1Cc1cc(C(N)=O)c(=O)[nH]c1C3` [Compound 6, (6R,6aR,12aS)-15-(cyclopropylmethyl)-2-methoxy-10-oxo-6,6a,7,10,11,12-hexahydro-5H-6,12a-(epiminoethano)naphtho[2,1-g]quinoline-9-carboxamide], the EC50 on κ-opioid receptor [1] turned out to be 2.98 ± 0.587 µM; at μ-opioid receptor it was 0.528 ± 0.121 µM. Also, the Emax at κ-opioid receptor [1] (setting [4]) was determined as 59.3 ± 2.33%; at μ-opioid receptor (setting [3]), 19.7 ± 2.02%. For the same molecule, on κ-opioid receptor [2], the inhibitory constant (Ki) stood at 35.7 ± 2.74 nM.
